Measured values taken from ChEMBL document CHEMBL3352612, “Design, synthesis, and biological activities of 1-aryl-1,4-diazepan-2-one derivatives as novel triple reuptake inhibitors” (Bioorg Med Chem Lett, 2014).
Active and inactive are the calls of the source. No cut-off for these calls is given here.

Columns and labels:
[1] = target: Sodium-dependent noradrenaline transporter (Homo sapiens, UniProt P23975); test: Inhibition of [3H]norepinephrine reuptake at human NET expressed in CHO cells after 45 mins by scintillation counting; assay type: cell-based
Sequence of Sodium-dependent noradrenaline transporter (P23975 whole entry): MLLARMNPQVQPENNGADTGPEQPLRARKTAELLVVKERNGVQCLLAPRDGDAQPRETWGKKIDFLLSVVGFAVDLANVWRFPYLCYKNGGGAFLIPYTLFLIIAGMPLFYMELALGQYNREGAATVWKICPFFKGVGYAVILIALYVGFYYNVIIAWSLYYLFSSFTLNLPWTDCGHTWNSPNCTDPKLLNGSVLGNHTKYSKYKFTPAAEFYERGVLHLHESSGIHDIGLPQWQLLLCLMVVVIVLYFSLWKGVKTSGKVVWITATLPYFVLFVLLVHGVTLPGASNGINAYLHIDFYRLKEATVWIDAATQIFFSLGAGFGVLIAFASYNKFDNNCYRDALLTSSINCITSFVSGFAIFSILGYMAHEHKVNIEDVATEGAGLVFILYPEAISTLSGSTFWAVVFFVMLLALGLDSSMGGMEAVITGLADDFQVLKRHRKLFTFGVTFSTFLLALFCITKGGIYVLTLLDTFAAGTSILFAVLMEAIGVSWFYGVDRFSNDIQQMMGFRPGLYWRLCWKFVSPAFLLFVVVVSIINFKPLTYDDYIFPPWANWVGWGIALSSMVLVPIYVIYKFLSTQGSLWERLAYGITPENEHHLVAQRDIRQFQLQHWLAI

[2] = target: Sodium-dependent dopamine transporter (Homo sapiens, UniProt Q01959); test: Inhibition of [3H]dopamine reuptake at human DAT expressed in CHO cells after 60 mins by scintillation counting; assay type: cell-based
Sequence of Sodium-dependent dopamine transporter (Q01959 whole entry): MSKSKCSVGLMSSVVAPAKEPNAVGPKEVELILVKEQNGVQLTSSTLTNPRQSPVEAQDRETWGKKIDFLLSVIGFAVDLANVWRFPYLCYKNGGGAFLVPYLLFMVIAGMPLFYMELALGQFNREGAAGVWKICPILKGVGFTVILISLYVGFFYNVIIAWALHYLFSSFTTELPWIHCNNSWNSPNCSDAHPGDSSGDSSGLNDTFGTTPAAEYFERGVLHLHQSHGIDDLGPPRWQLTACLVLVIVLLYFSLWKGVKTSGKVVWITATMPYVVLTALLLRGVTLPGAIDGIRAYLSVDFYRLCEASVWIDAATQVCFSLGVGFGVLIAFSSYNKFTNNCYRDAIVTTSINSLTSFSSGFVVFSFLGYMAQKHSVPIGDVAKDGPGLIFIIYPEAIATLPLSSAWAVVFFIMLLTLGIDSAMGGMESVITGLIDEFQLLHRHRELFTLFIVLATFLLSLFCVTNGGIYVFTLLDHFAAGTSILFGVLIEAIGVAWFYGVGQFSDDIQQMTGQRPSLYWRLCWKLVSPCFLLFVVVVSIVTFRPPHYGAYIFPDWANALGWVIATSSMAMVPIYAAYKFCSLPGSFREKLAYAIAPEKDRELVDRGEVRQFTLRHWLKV

[3] = target: Sodium-dependent serotonin transporter (Homo sapiens, UniProt P31645); test: Inhibition of [3H]serotonin reuptake at human SERT expressed in CHO cells after 20 mins by scintillation counting; assay type: cell-based
Sequence of Sodium-dependent serotonin transporter (P31645 whole entry): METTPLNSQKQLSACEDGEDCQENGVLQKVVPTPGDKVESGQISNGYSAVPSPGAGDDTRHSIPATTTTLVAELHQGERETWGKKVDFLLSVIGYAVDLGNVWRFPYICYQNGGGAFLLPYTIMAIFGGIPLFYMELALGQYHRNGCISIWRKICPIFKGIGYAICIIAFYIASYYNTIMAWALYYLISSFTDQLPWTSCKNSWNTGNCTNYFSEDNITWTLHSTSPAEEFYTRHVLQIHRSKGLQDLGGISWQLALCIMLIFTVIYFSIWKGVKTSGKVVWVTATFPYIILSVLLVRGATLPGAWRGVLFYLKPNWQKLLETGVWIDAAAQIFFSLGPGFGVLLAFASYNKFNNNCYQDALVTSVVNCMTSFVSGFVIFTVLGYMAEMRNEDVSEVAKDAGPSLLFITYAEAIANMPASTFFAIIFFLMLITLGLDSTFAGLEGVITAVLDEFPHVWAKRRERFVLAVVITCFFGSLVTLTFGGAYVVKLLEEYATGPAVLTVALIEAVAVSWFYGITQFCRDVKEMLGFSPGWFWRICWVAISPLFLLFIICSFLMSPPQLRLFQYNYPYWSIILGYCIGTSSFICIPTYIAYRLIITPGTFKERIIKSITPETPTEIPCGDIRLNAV

[4] = target: Voltage-gated inwardly rectifying potassium channel KCNH2 (Homo sapiens, UniProt Q12809); test: Inhibition of human ERG
Sequence of Voltage-gated inwardly rectifying potassium channel KCNH2 (Q12809 whole entry): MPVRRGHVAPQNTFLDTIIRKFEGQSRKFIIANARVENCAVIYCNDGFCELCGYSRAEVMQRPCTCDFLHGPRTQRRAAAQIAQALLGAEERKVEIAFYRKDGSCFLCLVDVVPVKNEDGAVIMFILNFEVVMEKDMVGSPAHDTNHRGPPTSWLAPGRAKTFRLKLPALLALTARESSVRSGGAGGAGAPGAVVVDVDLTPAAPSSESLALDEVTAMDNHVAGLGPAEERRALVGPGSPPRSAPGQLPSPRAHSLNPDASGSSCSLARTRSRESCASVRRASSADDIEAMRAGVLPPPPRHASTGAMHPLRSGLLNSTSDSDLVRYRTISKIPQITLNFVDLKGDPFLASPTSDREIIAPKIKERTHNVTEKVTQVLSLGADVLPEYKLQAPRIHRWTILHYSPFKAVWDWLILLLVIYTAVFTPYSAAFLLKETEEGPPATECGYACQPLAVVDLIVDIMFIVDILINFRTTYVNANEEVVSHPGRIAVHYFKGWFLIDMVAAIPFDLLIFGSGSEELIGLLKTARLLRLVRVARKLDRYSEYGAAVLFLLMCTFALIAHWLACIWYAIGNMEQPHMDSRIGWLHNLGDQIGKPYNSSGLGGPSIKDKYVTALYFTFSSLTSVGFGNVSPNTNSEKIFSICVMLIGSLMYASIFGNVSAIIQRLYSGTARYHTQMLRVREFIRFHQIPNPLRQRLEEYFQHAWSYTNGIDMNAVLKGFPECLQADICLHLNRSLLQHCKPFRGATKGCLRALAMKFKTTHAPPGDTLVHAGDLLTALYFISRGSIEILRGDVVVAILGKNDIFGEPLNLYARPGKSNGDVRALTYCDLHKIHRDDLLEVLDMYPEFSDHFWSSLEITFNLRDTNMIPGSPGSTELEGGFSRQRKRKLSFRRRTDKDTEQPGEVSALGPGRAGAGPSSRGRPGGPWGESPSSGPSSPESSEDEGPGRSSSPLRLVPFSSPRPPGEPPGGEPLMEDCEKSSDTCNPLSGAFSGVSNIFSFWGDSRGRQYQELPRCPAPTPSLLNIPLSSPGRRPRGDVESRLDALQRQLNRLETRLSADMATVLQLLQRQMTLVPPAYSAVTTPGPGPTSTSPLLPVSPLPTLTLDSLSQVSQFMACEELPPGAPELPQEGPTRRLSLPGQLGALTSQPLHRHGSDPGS

Cytochrome P450 2D6 = Cytochrome P450 2D6 (Homo sapiens, UniProt P10635); test: Inhibition of CYP2D6 (unknown origin); assay type: ADME
Sequence of Cytochrome P450 2D6 (P10635 whole entry): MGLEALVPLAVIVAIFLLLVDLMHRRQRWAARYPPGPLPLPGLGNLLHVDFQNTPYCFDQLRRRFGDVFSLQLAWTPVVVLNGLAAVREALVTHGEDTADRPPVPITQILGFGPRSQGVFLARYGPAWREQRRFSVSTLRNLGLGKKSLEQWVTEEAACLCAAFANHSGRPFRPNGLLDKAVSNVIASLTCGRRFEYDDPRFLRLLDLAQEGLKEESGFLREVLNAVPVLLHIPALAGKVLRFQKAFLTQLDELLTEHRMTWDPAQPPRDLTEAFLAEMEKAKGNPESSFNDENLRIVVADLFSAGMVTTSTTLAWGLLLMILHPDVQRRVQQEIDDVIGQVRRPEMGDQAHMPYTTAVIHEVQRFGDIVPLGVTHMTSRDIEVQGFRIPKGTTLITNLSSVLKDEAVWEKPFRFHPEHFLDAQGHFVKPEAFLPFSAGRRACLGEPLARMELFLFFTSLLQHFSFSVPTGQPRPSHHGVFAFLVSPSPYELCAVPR

Mus musculus [5] = test: Antidepressant activity in po dosed ICR mouse assessed as immobility time measured 60 mins post dose by tail-suspension test; assay type: functional, organism-based
Mus musculus [6] = test: Increase in extracellular 5-HT level in ICR mouse prefrontal cortex at 3 mg/kg, po measured at 120 mins post dose relative to basal level by microdialysis; assay type: functional
Mus musculus [7] = test: Antidepressant activity in ICR mouse assessed as immobility time at 3 mg/kg, po measured 60 mins post dose by tail-suspension test; assay type: functional, organism-based; parameters: dose 3 mg/kg
Mus musculus [8] = test: Increase in extracellular dopamine level in ICR mouse prefrontal cortex at 3 mg/kg, po measured at 120 mins post dose relative to basal level by microdialysis; assay type: functional
Mus musculus [9] = test: Increase in extracellular norepinephrine level in ICR mouse prefrontal cortex at 3 mg/kg, po measured at 120 mins post dose relative to basal level by microdialysis; assay type: functional

IC50 [1] [µM] | IC50 [2] [µM] | IC50 [3] [µM] | inhibition (INH) (Cytochrome P450 2D6) | SMILES | inhibition (INH) [4] | Activity (Mus musculus [5]) | Activity (Mus musculus [6]) [%] | Activity (Mus musculus [7]) | Activity (Mus musculus [8]) [%] | Activity (Mus musculus [9]) [%]
0.0038 | 0.16 | 0.083 | Not Active | C[C@@H]1NCCCN(c2ccc3ccccc3c2)C1=O.Cl | Not Active | Dose-dependent effect | 210 | Active | 640 | 750
0.66 | 4.5 | 1.9 | – | CC1CCNCC(=O)N1c1ccc(Cl)c(Cl)c1 (racemic) | – | – | – | – | – | –
1.7 | > 10 | 4.3 | Not Active | CC1CCN(c2ccc(Cl)c(Cl)c2)C(=O)CN1.Cl (racemic) | Not Active | – | – | – | – | –
0.0077 | 0.19 | 0.57 | Not Active | CCC1NCCCN(c2ccc(Cl)c(Cl)c2)C1=O.Cl (racemic) | Not Active | – | – | – | – | –
0.014 | 0.34 | 0.2 | Not Active | CC1NCCCN(c2ccc3ccccc3c2)C1=O.Cl (racemic) | Not Active | – | – | – | – | –

The remaining lines, values behind:

SMILES | IC50 [1] [µM] | IC50 [2] [µM] | IC50 [3] [µM] | inhibition (INH) (Cytochrome P450 2D6) | inhibition (INH) [4] | Activity (Mus musculus [5]) | Activity (Mus musculus [6]) [%] | Activity (Mus musculus [7]) | Activity (Mus musculus [8]) [%] | Activity (Mus musculus [9]) [%]
Cl.O=C1CNCCCN1c1ccc(Cl)c(Cl)c1 | 0.013 | 0.42 | 0.05 | Not Active | Not Active | – | – | – | – | –
O=C1CNCC(F)(F)CN1c1ccc(Cl)c(Cl)c1 | 2 | 8.1 | 1.3 | – | – | – | – | – | – | –
CN1CCCN(c2ccc(Cl)c(Cl)c2)C(=O)C1.Cl | 3.2 | > 10 | 5.5 | Not Active | Not Active | – | – | – | – | –
C[C@H]1NCCCN(c2ccc3ccccc3c2)C1=O | 0.57 | > 10 | 0.26 | – | – | – | – | – | – | –
O=C1CNCC2(CC2)CN1c1ccc(Cl)c(Cl)c1 | 0.082 | 0.12 | 2.2 | – | – | – | – | – | – | –
CC1CNCC(=O)N(c2ccc(Cl)c(Cl)c2)C1 (racemic) | 0.26 | 4 | 2.2 | – | – | – | – | – | – | –
CC1NCCCN(c2ccc(Cl)c(Cl)c2)C1=O.Cl (racemic) | 0.008 | 0.47 | 0.53 | Not Active | Not Active | – | – | – | – | –
CCC1NCCCN(c2ccc3ccccc3c2)C1=O.Cl (racemic) | 0.0092 | 0.13 | 0.088 | Not Active | Not Active | – | – | – | – | –
